# Experimental data: patent US8119686B2, “Spiroquinone compound and pharmaceutical composition” (Hykes Laboratories LLC, priority 2006, dated 2012)
# Experiments:
# Format in all cases: cell-based, human
# ABCA1 = test: Increase of ABCA1 in THP-1 cell (membrane fraction, SDS-PAGE and immunoblotting); conditions: PMA-differentiated THP-1 macrophages, 24 h culture with compound; relative to cells treated with probucol spiroquinone (=100)
# Protocol: THP-1 cells (human leukemia cell; manufactured by American Type Culture Collection) were cultured for 24 hours in 10% FBS-RPMI1640 culture medium (manufactured by Sigma) in the presence of PMA (phorbol myristate acetate; 3.2×10^−7 M; manufactured by Wako Pure Chemical Industries, Ltd.) to obtain differentiated macrophages. The resulting cells were washed with RPMI1640 (manufactured by Sigma) and then added to RPMI1640 culture medium (manufactured by Sigma) with BSA (manufactured by Sigma) having a concentration of 0.2%. The spiroquinone derivatives obtained in Examples 1, 6 and 10 was independently added to the culture medium. Each sample was cultured for 24 hours in the presence or absence of apoAI, and then the ABCA1 expression in the cells was assayed in accordance with the following method. Incidentally, the spiroquinone derivative was dissolved in 2-butabol, and the solution was added to the culture medium so that the final concentration of the spiroquinone derivative was 0.5%.
# The cells were washed with PBS (phosphate buffered saline; manufactured by Sigma). The washed cells were collected in 0.5 mM Tris-HCl (pH 8.5) containing a protease inhibitor (manufactured by Sigma), stirred, and allowed to stand on ice for 15 minutes. The resulting cell suspension was centrifuged at 470×g for 5 minutes to precipitate nuclear fractions. Thereafter, the supernatant was centrifuged at 316,000×g for 30 minutes to precipitate membrane fractions. The membrane fractions (15 μg protein) were used to conduct SDS-PAGE and Immunoblotting. The obtained band of the ABCA1 protein was converted into digital data by using an image analysis software (manufactured by […], Photoshop). The relative ratio (%) of the ABCA1 expression level of the cells treated with the spiroquinone derivative to that of the cells treated with probucol spiroquinone was calculated to evaluate the ABCA1 expression activity of the test compounds.
# THP-1 cells = test: Acceleration of HDL production reaction (apoA-I-dependent cholesterol release into culture medium); conditions: for apoA-1-dependent HDL cholesterol release, increase as compared with probucol spiroquinone: THP-1 cells, fold versus cells treated with probucol spiroquinone; for HDL cholesterol release (relative ratio %): THP-1 macrophages, culture medium after 24 h culture, apoA-I-dependent, relative to cells treated with probucol spiroquinone (=100)
# Protocol: The culture medium after 24-hour culture in the presence or absence of apoAI in Test Example 1 was used to examine cholesterol release into the culture medium by the apoA-1-dependent HDL-generating reaction.
# Specifically, the culture medium was collected in a 1.5 ml tube and centrifuged at 316,000×g for 5 minutes, and the supernatant was transferred in a glass tube. To the supernatant was added a mixture of chloroform and methanol (volume ratio=2/1) (manufactured by Wako Pure Chemical Industries, Ltd.). The resulting mixture was stirred and further centrifuged at 1,300×g for 5 minutes. After the centrifugation, the resulting water layer was removed. Water was added to the remaining organic layer, and the mixture was stirred again and centrifuged at 1,300×g for 5 minutes. After the centrifugation, the resulting water layer was removed. The organic layer was evaporated to dryness, and cholesterol remaining in the glass tube was quantitatively determined according to an enzymatic method. The relative ratio (%) of the amount of cholesterol release as HDL from the cells treated with the spiroquinone derivative to that from the cells treated with probucol spiroquinone was calculated to evaluate the HDL cholesterol release from the cells treated with the test compounds.
# ABCA1 mRNA = test: mRNA expression of intracellular ABCA1 (Real Time PCR); conditions: for mRNA Expression level of ABCA1 (relative ratio %): THP-1 macrophages, standardized to GAPDH mRNA, relative to untreated cells (=100)
# Protocol: The cells washed with PBS in Test Example 1 were used. From the cells, RNA was extracted with ISOGEN (manufactured by Wako Pure Chemical Industries, Ltd.). By using a Super Script First-Strand Synthesis System for RT-PCR (manufactured by Invitrogen) cDNA was prepared, and the mRNA expression of ABCA1 was assayed by Real Time PCR using ABCA1 specific primer and Power SYBR Green PCR Master Mix (manufactured by Applied Biosystems).
# Moreover, the mRNA expression of GAPDH as an internal control was also assayed simultaneously. The mRNA expression level of ABCA1 was standardized as a ratio (%) relative to the mRNA expression level of GAPDH. The mRNA expression level of ABCA1 in the cells treated with the test compound relative to that in untreated cells was calculated and evaluated.
Structure (SMILES),ABCA1 expression level (relative ratio %) (ABCA1),"apoA-1-dependent HDL cholesterol release, increase as compared with probucol spiroquinone (THP-1 cells)",HDL cholesterol release (relative ratio %) (THP-1 cells),mRNA expression of ABCA1 in treated THP-1 cells (in words) (ABCA1 mRNA; THP-1 cells),mRNA Expression level of ABCA1 (relative ratio %) (ABCA1 mRNA)
"CC1(CCC(=O)O)SC2(C=C(C(C)(C)C)C(=O)C(C(C)(C)C)=C2)C2(C=C(C(C)(C)C)C(=O)C(C(C)(C)C)=C2)S1 [Example 1, 14-carboxyethyl-14-methyl-2,4,9,11-tetrakis(t-butyl)-13,15-dithiadispiro[5.0.5.3]pentadeca-1,4,8,11-tetraene-3,10-dione]",238%,,,,
"CCCC1(C)SC2(C=C(C(C)(C)C)C(=O)C(C(C)(C)C)=C2)C2(C=C(C(C)(C)C)C(=O)C(C(C)(C)C)=C2)S1 [Example 6, 14-methyl-2,4,9,11-tetrakis(t-butyl)-14-n-propyl-13,15-dithiadispiro[5.0.5.3]pentadeca-1,4,8,11-tetraene-3,10-dione]",176%,about 1.3 times,134%,not found,51%
"CC(C)(C)C1=CC2(C=C(C(C)(C)C)C1=O)SC1(CCCC1)SC21C=C(C(C)(C)C)C(=O)C(C(C)(C)C)=C1 [Example 10, 9,11,15,17-tetrakis(t-butyl)-6,19-dithiadispiro[4.1.5^7.0.5^13.1^5]nonadeca-8,11,14,17-tetraene-10,16-dione]",309%,about 1.3 times,128%,,
"CC1(C)SC2(C=C(C(C)(C)C)C(=O)C(C(C)(C)C)=C2)C2(C=C(C(C)(C)C)C(=O)C(C(C)(C)C)=C2)S1 [Probucol spiroquinone, reference compound]",100%,,100%,,65%
